The values that follow come from patent US9765060B2 (Gilead Sciences, Inc., priority 2014, dated 2017).

One may read the IC50 as the point on the concentration scale where inhibition reaches its midpoint.

The structures appear in SMILES notation.

PI3K isoform δ, sequence (O00329 whole entry, canonical isoform): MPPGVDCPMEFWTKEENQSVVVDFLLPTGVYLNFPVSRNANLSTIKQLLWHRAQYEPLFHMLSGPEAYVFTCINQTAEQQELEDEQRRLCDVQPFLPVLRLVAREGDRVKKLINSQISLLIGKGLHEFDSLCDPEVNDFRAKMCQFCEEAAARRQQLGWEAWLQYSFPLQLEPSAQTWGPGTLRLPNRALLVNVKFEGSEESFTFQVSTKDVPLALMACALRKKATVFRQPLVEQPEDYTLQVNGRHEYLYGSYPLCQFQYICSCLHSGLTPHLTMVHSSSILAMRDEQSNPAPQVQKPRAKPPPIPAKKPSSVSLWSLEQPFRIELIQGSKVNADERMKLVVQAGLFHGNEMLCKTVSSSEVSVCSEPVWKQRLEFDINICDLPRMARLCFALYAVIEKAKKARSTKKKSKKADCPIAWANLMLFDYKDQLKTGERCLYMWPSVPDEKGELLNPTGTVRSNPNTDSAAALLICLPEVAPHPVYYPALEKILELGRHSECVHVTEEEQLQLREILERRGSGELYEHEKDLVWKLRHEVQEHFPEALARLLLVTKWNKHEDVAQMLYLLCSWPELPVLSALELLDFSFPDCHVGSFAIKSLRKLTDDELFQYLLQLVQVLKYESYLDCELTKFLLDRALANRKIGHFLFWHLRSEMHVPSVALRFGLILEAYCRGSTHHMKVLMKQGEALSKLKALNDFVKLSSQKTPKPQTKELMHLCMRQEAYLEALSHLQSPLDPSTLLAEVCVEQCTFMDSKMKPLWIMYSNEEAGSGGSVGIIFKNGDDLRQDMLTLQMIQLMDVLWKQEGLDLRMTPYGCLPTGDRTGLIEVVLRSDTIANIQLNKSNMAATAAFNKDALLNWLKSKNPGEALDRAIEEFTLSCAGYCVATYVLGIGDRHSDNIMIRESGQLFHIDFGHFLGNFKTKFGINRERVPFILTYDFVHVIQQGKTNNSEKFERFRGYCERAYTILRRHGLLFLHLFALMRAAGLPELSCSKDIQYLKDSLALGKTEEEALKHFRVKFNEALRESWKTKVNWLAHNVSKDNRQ
PI3K isoform δ, sequence (P27986 whole entry partner, canonical isoform): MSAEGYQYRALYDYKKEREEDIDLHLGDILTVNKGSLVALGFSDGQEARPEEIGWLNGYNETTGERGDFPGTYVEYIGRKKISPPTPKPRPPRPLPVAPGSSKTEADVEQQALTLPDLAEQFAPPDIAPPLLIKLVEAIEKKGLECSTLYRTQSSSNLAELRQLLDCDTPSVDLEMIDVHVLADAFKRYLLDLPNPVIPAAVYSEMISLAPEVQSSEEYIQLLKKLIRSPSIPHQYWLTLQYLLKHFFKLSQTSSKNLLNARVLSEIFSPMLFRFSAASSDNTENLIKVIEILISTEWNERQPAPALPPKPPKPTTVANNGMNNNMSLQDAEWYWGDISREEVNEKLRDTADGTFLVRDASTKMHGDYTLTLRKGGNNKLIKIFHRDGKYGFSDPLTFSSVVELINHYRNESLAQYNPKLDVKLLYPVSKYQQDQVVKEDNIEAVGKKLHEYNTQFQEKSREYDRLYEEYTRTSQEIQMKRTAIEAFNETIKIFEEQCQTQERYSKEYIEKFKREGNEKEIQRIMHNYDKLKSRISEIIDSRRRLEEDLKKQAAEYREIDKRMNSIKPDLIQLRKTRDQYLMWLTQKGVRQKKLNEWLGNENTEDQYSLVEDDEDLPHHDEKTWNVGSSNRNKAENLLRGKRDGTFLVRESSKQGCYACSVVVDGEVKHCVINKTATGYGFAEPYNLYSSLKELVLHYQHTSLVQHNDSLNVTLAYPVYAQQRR

One assay has as its target PI3K isoform δ (Homo sapiens (Human), UniProt O00329). Description: TR-FRET assay of enzymatic activity of class I PI3K isoforms. Conditions: read-out: IC50 (nM) for PI3K isoform δ (Table 2); TR-FRET; 2× Km ATP, 2 μM PIP2; incubated for 30 minutes at 25° C.
Excerpt: TR-FRET monitored the formation of 3,4,5-inositol triphosphate molecule that competed with fluorescently labeled PIP3 for binding to the GRP-1 pleckstrin homology domain protein. […] Class I PI3K isoforms were expressed and purified as heterodimeric recombinant proteins. All assay reagents and buffers for the TR-FRET assay were purchased from Millipore.
As for `N#Cc1c(N)nc(N)nc1N[C@H](c1nc2ccc(F)c(C#N)c2c(=O)n1-c1cccc(F)c1)C1CC1` [Compound 7a, (S)-2-(cyclopropyl((2,6-diamino-5-cyanopyrimidin-4-yl)amino)methyl)-6-fluoro-3-(3-fluorophenyl)-4-oxo-3,4-dihydroquinazoline-5-carbonitrile], the IC50 was found to be 6 nM.
Regarding `N#Cc1c(N)nc(N)nc1N[C@@H](c1ccccc1)c1nc2cccc(Cl)c2c(=O)n1-c1ccccc1` [Compound 3a, (S)-2,4-diamino-6-(((5-chloro-4-oxo-3-phenyl-3,4-dihydroquinazoline-2-yl)(phenyl)methyl)amino)pyrimidine-5-carbonitrile], the IC50 was determined as 0.3 nM.
`CS(=O)(=O)c1cccc2nc([C@@H](Nc3nc(N)nc(N)c3C#N)C3CC3)n(-c3c(F)cccc3F)c(=O)c12` [Compound 6a, (S)-2,4-diamino-6-((cyclopropyl(3-(2,6-difluorophenyl)-5-(methylsulfonyl)-4-oxo-3,4-dihydroquinazolin-2-yl)methyl)amino)pyrimidine-5-carbonitrile]: the IC50 was determined as 41 nM.

Still in this assay, the particulars now being: read-out: IC50 (nM) for PI3K isoform δ (Table 3); TR-FRET; 2× Km ATP, 2 μM PIP2; incubated for 30 minutes at 25° C.
On to `N#Cc1c(N)nc(N)nc1N1C[C@H](F)C[C@H]1c1nc2cccc(Cl)c2c(=O)n1-c1cc(F)cc(F)c1` [Compound 95, 2,4-diamino-6-((2S,4R)-2-(5-chloro-3-(3,5-difluorophenyl)-4-oxo-3,4-dihydroquinazolin-2-yl)-4-fluoropyrrolidin-1-yl)pyrimidine-5-carbonitrile], for which the IC50 was found to be 160 nM.
On the same count and under the same terms, under `C[C@H](Nc1nc(N)nc(N)c1C#N)c1nc2cccc(CCCN3CCOCC3(C)C)c2c(=O)n1-c1ccccc1` [Compound 53, (S)-2,4-diamino-6-((1-(5-(3-(3,3-dimethylmorpholino)propyl)-4-oxo-3-phenyl-3,4-dihydroquinazolin-2-yl)ethyl)amino)pyrimidine-5-carbonitrile] stands 0.7 nM.
Same read-out and setting: under `C[C@H](Nc1nc(N)nc(N)c1C#N)c1nc2cccc(C3=CCNCC3)c2c(=O)n1-c1ccccc1` [Compound 93, (S)-2,4-diamino-6-((1-(4-oxo-3-phenyl-5-(1,2,3,6-tetrahydropyridin-4-yl)-3,4-dihydroquinazolin-2-yl)ethyl)amino)pyrimidine-5-carbonitrile] stands 17 nM; under `C[C@H](Nc1nc(N)nc(N)c1C#N)c1nc2cccc(OCC(=O)N3CCCCC3)c2c(=O)n1-c1ccccc1` [Compound 28, (S)-2,4-diamino-6-((1-(4-oxo-5-(2-oxo-2-(piperidin-1-yl)ethoxy)-3-phenyl-3,4-dihydroquinazolin-2-yl)ethyl)amino)pyrimidine-5-carbonitrile], 2 nM; under `C[C@H](Nc1nc(N)nc(N)c1C#N)c1nc2cccc(CCCC(=O)O)c2c(=O)n1-c1ccccc1` [Compound 69, (S)-4-(2-(1-((2,6-diamino-5-cyanopyrimidin-4-yl)amino)ethyl)-4-oxo-3-phenyl-3,4-dihydroquinazolin-5-yl)butanoic acid], 1 nM.
As for `C[C@H](Nc1nc(N)nc(Cl)c1C#N)c1nc2c(F)ccc(Cl)c2c(=O)n1-c1ccccc1` [Compound 66, (S)-2-amino-4-chloro-6-((1-(5-chloro-8-fluoro-4-oxo-3-phenyl-3,4-dihydroquinazolin-2-yl)ethyl)amino)pyrimidine-5-carbonitrile], the half-maximal inhibitory concentration (IC50) is 0.7 nM.
As for `CC(C)OC(=O)COc1cccc2nc([C@H](C)Nc3nc(N)nc(N)c3C#N)n(-c3ccccc3)c(=O)c12` [Compound 25, (S)-isopropyl 2-((2-(1-((2,6-diamino-5-cyanopyrimidin-4-yl)amino)ethyl)-4-oxo-3-phenyl-3,4-dihydroquinazolin-5-yl)oxy)acetate], the IC50 was 36 nM.
Still for that read-out and setting: the result for `C[C@H](Nc1nc(N)nc(N)c1C#N)c1nc2cccc(OCCN3CCCC3)c2c(=O)n1-c1ccccc1` [Compound 24, (S)-2,4-diamino-6-((1-(4-oxo-3-phenyl-5-(2-(pyrrolidin-1-yl)ethoxy)-3,4-dihydroquinazolin-2-yl)ethyl)amino)pyrimidine-5-carbonitrile] reads 10 nM.
Consider `C[C@H](Nc1nc(N)nc(N)c1C#N)c1nc2c(F)ccc(CCC(N)=O)c2c(=O)n1-c1cc(F)cc(F)c1` [Compound 39, (S)-3-(2-(1-((2,6-diamino-5-cyanopyrimidin-4-yl)amino)ethyl)-3-(3,5-difluorophenyl)-8-fluoro-4-oxo-3,4-dihydroquinazoline-5-yl)propanamide], for which the IC50 stood at 2 nM.
As to `N#Cc1c(N)nc(N)nc1N1C[C@H](NC(=O)C(F)F)C[C@H]1c1nc2cccc(F)c2c(=O)n1-c1cc(F)cc(F)c1` [Compound 111, N-((3R,5S)-1-(2,6-diamino-5-cyanopyrimidin-4-yl)-5-(3-(3,5-difluorophenyl)-5-fluoro-4-oxo-3,4-dihydroquinazolin-2-yl)pyrrolidin-3-yl)-2,2-difluoroacetamide], the IC50 came out at 9 nM.
On to `C[C@H](Nc1nc(N)nc(N)c1C#N)c1nc2c(F)ccc(CCCN3CCC(F)(F)C3)c2c(=O)n1-c1ccccc1` [Compound 55, (S)-2,4-diamino-6-((1-(5-(3-(3,3-difluoropyrrolidin-1-yl)propyl)-8-fluoro-4-oxo-3-phenyl-3,4-dihydroquinazolin-2-yl)ethyl)amino)pyrimidine-5-carbonitrile], for which the IC50 is 0.4 nM.
On to `C[C@H](Nc1nc(N)nc(N)c1C#N)c1nc2cccc(CCCN3CCC(F)(F)CC3)c2c(=O)n1-c1ccccc1` [Compound 48, (S)-2,4-diamino-6-((1-(5-(3-(4,4-difluoropiperidin-1-yl)propyl)-4-oxo-3-phenyl-3,4-dihydroquinazolin-2-yl)ethyl)amino)pyrimidine-5-carbonitrile], for which the IC50 worked out at 0.5 nM.
For `C[C@H](Nc1nc(N)nc(N)c1C#N)c1nc2cccc(OCCN3CCN(c4ccccc4)CC3)c2c(=O)n1-c1ccccc1` [Compound 31, (S)-2,4-diamino-6-((1-(4-oxo-3-phenyl-5-(2-(4-phenylpiperazin-1-yl)ethoxy)-3,4-dihydroquinazolin-2-yl)ethyl)amino)pyrimidine-5-carbonitrile], the IC50 was determined as 4 nM.
As for `CS(=O)(=O)c1cccc2nc([C@@H]3CCCN3c3nc(N)nc(N)c3C#N)n(-c3ccccc3F)c(=O)c12` (atropisomer, axis not shown) [Compound 74, (S)-2,4-diamino-6-(2-(3-(2-fluorophenyl)-5-(methylsulfonyl)-4-oxo-3,4-dihydroquinazolin-2-yl)pyrrolidin-1-yl)pyrimidine-5-carbonitrile], the IC50 is 3 nM.
For `N#Cc1c(N)nc(N)nc1N1C[C@H](NC(=O)C(F)F)C[C@H]1c1nc2cccc(Cl)c2c(=O)n1-c1cc(F)cc(F)c1` [Compound 109, N-((3R,5S)-5-(5-chloro-3-(3,5-difluorophenyl)-4-oxo-3,4-dihydroquinazolin-2-yl)-1-(2,6-diamino-5-cyanopyrimidin-4-yl)pyrrolidin-3-yl)-2,2-difluoroacetamide], the IC50 stood at 0.7 nM.
Same read-out and setting: the result for `N#Cc1c(N)nc(N)nc1N1CCC[C@H]1c1nc2cccc(Cl)c2c(=O)n1-c1cc(F)cc(F)c1` [Compound 83, (S)-2,4-diamino-6-(2-(5-chloro-3-(3,5-difluorophenyl)-4-oxo-3,4-dihydroquinazolin-2-yl)pyrrolidin-1-yl)pyrimidine-5-carbonitrile] reads 2 nM; that for `C[C@H](Nc1nc(Cl)nc(N)c1C#N)c1nc2cccc(Cl)c2c(=O)n1-c1ccccc1` [Compound 104, (S)-4-amino-2-chloro-6-((1-(5-chloro-4-oxo-3-phenyl-3,4-dihydroquinazolin-2-yl)ethyl)amino)pyrimidine-5-carbonitrile], 4 nM.
In the case of `C[C@H](Nc1nc(N)nc(N)c1Cl)c1nc2c(F)ccc(CCC(N)=O)c2c(=O)n1-c1cc(F)cc(F)c1` [Compound 41, (S)-3-(2-(1-((2,6-diamino-5-chloropyrimidin-4-yl)amino)ethyl)-3-(3,5-difluorophenyl)-8-fluoro-4-oxo-3,4-dihydroquinazoline-5-yl)propanamide], the IC50 is 25 nM.
`C[C@H](Nc1nc(N)nc(N)c1C#N)c1nc2cccc(OCCN3CCCCC3)c2c(=O)n1-c1ccccc1` [Compound 30, (S)-2,4-diamino-6-((1-(4-oxo-3-phenyl-5-(2-(piperidin-1-yl)ethoxy)-3,4-dihydroquinazolin-2-yl)ethyl)amino)pyrimidine-5-carbonitrile]: the IC50 came to 6 nM.
For `C[C@H](Nc1nc(N)nc(Cl)c1C#N)c1nc2cccc(Cl)c2c(=O)n1-c1cc(F)cc(F)c1` [Compound 105, (S)-2-amino-4-chloro-6-((1-(5-chloro-3-(3,5-difluorophenyl)-4-oxo-3,4-dihydroquinazolin-2-yl)ethyl)amino)pyrimidine-5-carbonitrile], the half-maximal inhibitory concentration (IC50) worked out at 2 nM.
With `C[C@H](Nc1nc(N)nc(N)c1C#N)c1nc2cccc(CCCN3CC4(COC4)C3)c2c(=O)n1-c1ccccc1` [Compound 62, (S)-4-((1-(5-(3-(2-oxa-6-azaspiro[3.3]heptan-6-yl)propyl)-4-oxo-3-phenyl-3,4-dihydroquinazolin-2-yl)ethyl)amino)-2,6-diaminopyrimidine-5-carbonitrile], the IC50 stood at 0.8 nM.
As for `C[C@H](Nc1nc(N)nc(N)c1C#N)c1nc2cccc(OCCN3CCOCC3)c2c(=O)n1-c1ccccc1` [Compound 22, (S)-2,4-diamino-6-((1-(5-(2-morpholinoethoxy)-4-oxo-3-phenyl-3,4-dihydroquinazolin-2-yl)ethyl)amino)pyrimidine-5-carbonitrile], the IC50 is 22 nM.
Take `C[C@H](Nc1nc(N)nc(N)c1C#N)c1nc2cccc(CCCN3CCC4(COC4)C3)c2c(=O)n1-c1ccccc1` [Compound 63, (S)-4-((1-(5-(3-(2-oxa-6-azaspiro[3.4]octan-6-yl)propyl)-4-oxo-3-phenyl-3,4-dihydroquinazolin-2-yl)ethyl)amino)-2,6-diaminopyrimidine-5-carbonitrile]: the IC50 was determined as 0.8 nM.
